Test results as given in ChEMBL document CHEMBL1201862, “PubChem BioAssay data set” (2004).
Calls of active or inactive are those of the source. No rule for the calls is given here.

Target: Mitogen-activated protein kinase kinase kinase kinase 5 (Homo sapiens, UniProt Q9Y4K4)
Assay type: functional
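Also: measured as one member of a kinome-spanning kinase panel.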

Mitogen-activated protein kinase kinase kinase kinase 5, sequence (Q9Y4K4 whole entry): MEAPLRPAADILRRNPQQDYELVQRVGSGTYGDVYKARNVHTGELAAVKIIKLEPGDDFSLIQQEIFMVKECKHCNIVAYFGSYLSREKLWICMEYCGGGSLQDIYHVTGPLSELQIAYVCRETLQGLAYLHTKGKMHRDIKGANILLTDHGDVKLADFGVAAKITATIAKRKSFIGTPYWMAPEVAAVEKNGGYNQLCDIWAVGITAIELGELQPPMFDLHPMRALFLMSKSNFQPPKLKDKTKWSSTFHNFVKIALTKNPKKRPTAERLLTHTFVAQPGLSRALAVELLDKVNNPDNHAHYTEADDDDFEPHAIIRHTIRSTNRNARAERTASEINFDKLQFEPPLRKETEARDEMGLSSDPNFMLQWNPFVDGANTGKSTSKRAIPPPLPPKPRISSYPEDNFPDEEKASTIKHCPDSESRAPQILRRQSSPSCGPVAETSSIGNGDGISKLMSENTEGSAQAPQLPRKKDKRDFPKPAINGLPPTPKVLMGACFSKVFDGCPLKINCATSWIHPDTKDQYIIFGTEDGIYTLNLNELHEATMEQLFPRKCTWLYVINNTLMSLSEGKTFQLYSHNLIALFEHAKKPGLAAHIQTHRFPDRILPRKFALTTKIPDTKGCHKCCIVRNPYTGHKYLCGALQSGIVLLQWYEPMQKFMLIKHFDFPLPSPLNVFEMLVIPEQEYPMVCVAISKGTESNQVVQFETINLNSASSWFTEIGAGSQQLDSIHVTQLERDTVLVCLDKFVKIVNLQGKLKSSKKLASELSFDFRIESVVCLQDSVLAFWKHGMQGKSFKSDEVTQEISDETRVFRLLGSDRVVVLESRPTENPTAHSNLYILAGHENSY

Ki: 251 nM (active)
SMILES: Cc1n[nH]c2ccc(-c3cncc(OCC(N)Cc4cccc(Cl)c4)c3)cc12 (stereo unspecified)
